Experimental data: patent publication US7880042B2, “Tetrahydronaphthalene derivatives, methods for the production thereof, and the use thereof as antiphlogistics” (Bayer Schering Pharma AG, priority 2006, dated 2011)
pEC50, pIC50: −log10 of the molar value. Where two headings read alike, the source gives them in different places.

Experiments:
[1] = tested on: lipopolysaccharide (LPS)-initiated secretion of the cytokine IL-8 in the human THP-1 monocyte cell line; assay: Inhibition of LPS-initiated IL-8 secretion in THP-1 cells; type: cell-based; conditions: for Emax / pIC50: Homo sapiens; for Emax: read-out: IL8 eff; for pIC50: read-out: IL8 IC50; for Diss. (TATEC50/IL8IC50): ratio TAT EC50 / IL8 IC50
[2] = tested on: tyrosine aminotransferase (TAT); assay: TAT induction in vitro; type: cell-based; conditions: for Emax: read-out: TAT eff; for EC50: cells printed in μM
[3] = THP-1, inventive stereoisomers, efficacy of IL-8 inhibition
[4] = inventive stereoisomers, LPS-initiated IL-8 secretion, THP-1 cells
[5] = inventive stereoisomers, efficacy of TAT induction
[6] = inventive stereoisomers, in vitro TAT induction
[7] = THP-1, prior-art compounds (WO2005/034939)
[8] = prior-art compounds (WO2005/034939)

pIC50 [1, 4] | pEC50 [2, 6] | pIC50 [1, 7] | pEC50 [2, 8] | EC50 [2, 6] | SMILES | Emax [1, 3] | Diss. (TATEC50/IL8IC50) ([1]; inventive stereoisomers) | Emax [2, 5] | Emax [1, 7] | Diss. (TATEC50/IL8IC50) [1, 8] | Emax [2, 8]
8.74 | 7.13 | – | – | – | CC[C@H]1C[C@](O)(C(F)(F)F)[C@@H](Nc2cc(F)cc3[nH]c(=O)ccc23)c2ccc(Cl)c(O)c21 (stereo in doubt) [Example 101, 5-{[(1α,2α,4α)-6-Chloro-2,5-Dihydroxy-4-ethyl-2-(trifluoromethyl)-1,2,3,4-tetrahydronaphthalen-1-yl]amino}-7-fluoro-1H-quinolin-2-one] | 92% | 41 | 97% | – | – | –
8.24 | 6.31 | – | – | – | CC[C@@H]1C[C@](O)(C(F)(F)F)[C@@H](Nc2cccc3[nH]c(=O)ccc23)c2cc(F)c(F)c(O)c21 [Example 54, 5-{[(1α,2α,4β)-4-ethyl-6,7-difluoro-2,5-dihydroxy-2-(trifluoromethyl)-1,2,3,4-tetrahydronaphthalen-1-yl]amino}quinolin-2(1H)-one] | 78% | 86 | 76% | – | – | –
– | – | 6.66 | 6.85 | – | CCC1CC(O)(C(F)(F)F)C(Nc2cccc3nc(C)ccc23)c2ccc(F)c(O)c21 (centres unmarked) [reference compound] | – | – | – | 69% | 0.64 | 88%
– | – | 7.85 | 8.42 | – | CC1(C)CC(O)(C(F)(F)F)C(Nc2cccc3[nH]c(=O)ccc23)c2ccc(F)c(O)c21 (centres unmarked) [reference compound] | – | – | – | 68% | 0.27 | 92%
8.18 | 7.77 | – | – | – | CC[C@@H]1C[C@](O)(C(F)(F)F)[C@@H](Nc2cc(F)cc3nc(C)ncc23)c2ccc(F)c(O)c21 [Example 30A, (5S,6R,8R)-8-Ethyl-2-fluoro-5-[(7-fluoro-2-methylquinazolin-5-yl)amino]-6-(trifluoromethyl)-5,6,7,8-tetrahydronaphthalene-1,6-diol] | 89% | 2.8 | 95% | – | – | –
8.43 | 6.52 | – | – | – | CC[C@@H]1C[C@](O)(C(F)(F)F)[C@@H](Nc2cccc3c(=O)[nH]ccc23)c2cc(Cl)c(C)c(O)c21 [Example 121B, 5-{[(1S,2R,4R)-7-chloro-2,5-Dihydroxy-6-methyl-4-ethyl-2-(trifluoromethyl)-1,2,3,4-tetrahydronaphthalen-1-yl]amino}-2H-quinolin-1-one] | 88% | 81 | 99% | – | – | –
8.15 | 6.92 | – | – | – | CCC1CC(O)(C(F)(F)F)C(Nc2cccc3[nH]c(=O)ccc23)c2cc(F)cc(O)c21 (centres unmarked) [Example 75, 5-{[4-Ethyl-7-fluoro-2,5-dihydroxy-2-(trifluoromethyl)-1,2,3,4-tetrahydronaphthalen-1-yl]amino}quinolin-2(1H)-one] | 68% | 16.9 | 89% | – | – | –
7.66 | – | – | – | 1 µM | Cc1ccc2c(N[C@H]3c4ccc(F)c(O)c4[C@H](C)C[C@]3(O)C(F)(F)F)cccc2n1 [Example 1] | 79% | 45.5 | 62% | – | – | –
7.89 | 6.82 | – | – | – | CC[C@@H]1C[C@](O)(C(F)(F)F)[C@@H](Nc2cc(F)cc3nc(C)ncc23)c2cc(F)c(F)c(O)c21 [Example 51A, (5α,6α,8β)-8-Ethyl-2,3-difluoro-5-[(7-fluoro-2-methylquinazolin-5-yl)amino]-6-(trifluoromethyl)-5,6,7,8-tetrahydronaphthalene-1,6-diol] | 72% | 11.5 | 81% | – | – | –
7.42 | – | – | – | 1 µM | Cc1ccc2c(NC3c4ccc(F)c(O)c4C(C(C)C)CC3(O)C(F)(F)F)cccc2n1 (centres unmarked) [Example 65, 2-Fluoro-5-[(2-methylquinolin-5-yl)amino]-8-(Prop-2-yl)-6-(trifluoromethyl)-5,6,7,8-tetrahydronaphthalene-1,6-diol] | 58% | 26.3 | 73% | – | – | –
– | – | 7.66 | 8.52 | – | Cc1ncc2c(NC3c4ccc(Cl)c(O)c4C(C)(C)CC3(O)C(F)(F)F)ccc(F)c2n1 (centres unmarked) [reference compound] | – | – | – | 73% | 0.14 | 98%
– | – | 7.51 | 8.38 | – | Cc1ncc2c(NC3c4cc(Cl)c(F)c(O)c4C(C)(C)CC3(O)C(F)(F)F)cc(F)c(F)c2n1 (centres unmarked) [reference compound] | – | – | – | 96% | 0.14 | 100%
7.80 | 6.92 | – | – | – | CC[C@@H]1C[C@](O)(C(F)(F)F)[C@@H](Nc2cccc3nc(C)ncc23)c2ccc(F)c(O)c21 [Example 29A, (5α,6α,8β)-8-Ethyl-2-fluoro-5-[(2-methylquinazolin-5-yl)amino]-6-(trifluoromethyl)-5,6,7,8-tetrahydronaphthalene-1,6-diol] | 77% | 7.5 | 95% | – | – | –
– | – | 7.70 | 8.37 | – | CC1(C)CC(O)(C(F)(F)F)C(Nc2cc(F)cc3[nH]ncc23)c2ccc(F)c(O)c21 (centres unmarked) [reference compound] | – | – | – | 88% | 0.22 | 100%
7.92 | 7.37 | – | – | – | CC[C@H]1C[C@](O)(C(F)(F)F)[C@@H](Nc2cccc3[nH]c(=O)ccc23)c2ccc(F)c(O)c21 (stereo in doubt) [Example 43, 5-{[(1α,2α,4α)-4-Ethyl-6-fluoro-2,5-dihydroxy-2-(trifluoromethyl)-1,2,3,4-tetrahydronaphthalen-1-yl]amino}quinolin-2(1H)-one] | 88% | 3.6 | 100% | – | – | –
– | – | 7.40 | 8.19 | – | Cc1ncc2c(NC3c4cc(C)c(F)c(O)c4C(C)(C)CC3(O)C(F)(F)F)ccc(F)c2n1 (centres unmarked) [reference compound] | – | – | – | 79% | 0.16 | 100%
